According to patent US8217041B2, “Indene derivatives, their preparation and use as medicaments” (Laboratories del Sr. Esteve, S.A., priority 2005, dated 2012):
Like-named read-outs stand apart in the source and are kept apart here.

Biological target: T1, 5HT6 human recombinant receptor (Homo sapiens, UniProt P50406)
T1 construct: purchased Receptor Biology; host or cells: HEK-293 cell membranes
Assay: Binding test to 5-HT6 receptors ([3H]-LSD displacement, HEK-293 cell membranes)
Details: for inhibition at 0.1 µM: read-out: % Inhibition 10^−7 M; for inhibition at 0.01 µM: read-out: % Inhibition 10^−8 M; for inhibition at 1 µM: compound concentration 10^−6 M; for Ki: inhibition constant by non-linear regression (EBDA/LIGAND), [3H]-LSD 2.7 nM
Protocol: Binding Test to 5-HT6 Receptors
Membranes of HEK-293 cells expressing the 5HT6 human recombinant receptor were supplied by Receptor Biology. In these membranes the receptor concentration is 2.18 pmol/mg protein and the protein concentration is 9.17 mg/ml. The experimental protocol follows the method of B. L. Roth et al. [B. L. Roth, S. C. Craigo, M. S. Choudhary, A. Uluer, F. J. Monsma, Y. Shen, H. Y. Meltzer, D. R. Sibley: Binding of Typical and Atypical Antipsychotic Agents to 5-Hydroxytryptamine-6 and Hydroxytriptamine-7 Receptors. The Journal of Pharmacology and Experimental Therapeutics, 1994, 268, 1403] with slight modifications. The commercial membrane is diluted (dilution 1:40) with the binding buffer: 50 mM Tris-HCl, 10 mM MgCl2, 0.5 mM EDTA (pH 7.4). The radioligand used is [^3H]-LSD at a concentration of 2.7 nM with a final volume of 200 μl. Incubation is initiated by adding 100 μl of the membrane suspension (≈22.9 μg membrane protein), and continues for 60 minutes at a temperature of 37° C. Incubation ends by fast filtration in a Harvester Brandel Cell through glass fibre filters manufactured by Schleicher & Schuell GF 3362 pre-treated with a 0.5% polyethylenimine solution. The filters are washed three times with three milliliters of Tris-HCl 50 mM pH 7.4 buffer. The filters are transferred to vials and to each vial 5 ml of liquid scintillation cocktail Ecoscint H is added. The vials are allowed to reach equilibrium for several hours before being counted in a Wallac Winspectral 1414 scintillation counter. Non-specific binding is determined in the presence of 100 μM serotonin. The tests are performed in triplicate. The inhibition constants (Ki, nM) are calculated by non-linear regression analysis using the program EBDA/LIGAND [Munson and Rodbard, Analytical Biochemistry, 1980, 107, 220].

[1] = compound concentration 10^−7 M, radioligand [3H]-LSD 2.7 nM, 60 min, 37° C.
[2] = compound concentration 10^−8 M, radioligand [3H]-LSD 2.7 nM, 60 min, 37° C.
[3] = radioligand [3H]-LSD 2.7 nM, 60 min, 37° C.

T1 sequence (P50406 whole entry): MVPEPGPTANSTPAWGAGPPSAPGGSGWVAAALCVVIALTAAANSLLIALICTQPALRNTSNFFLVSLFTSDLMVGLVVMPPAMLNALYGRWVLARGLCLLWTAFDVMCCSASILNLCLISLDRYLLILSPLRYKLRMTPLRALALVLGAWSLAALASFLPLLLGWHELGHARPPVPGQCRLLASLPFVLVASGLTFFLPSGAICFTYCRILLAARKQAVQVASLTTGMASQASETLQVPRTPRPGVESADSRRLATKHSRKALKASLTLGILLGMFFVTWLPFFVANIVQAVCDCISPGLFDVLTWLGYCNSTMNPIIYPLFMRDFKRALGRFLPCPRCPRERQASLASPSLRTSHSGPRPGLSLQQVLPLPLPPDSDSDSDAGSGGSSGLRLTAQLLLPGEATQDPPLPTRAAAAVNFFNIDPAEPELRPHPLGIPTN

Row | inhibition at 0.1 µM [1] [%] | inhibition at 0.01 µM [2] [%] | inhibition at 1 µM [3] [%] | Ki [nM] | SMILES | inhibition at 0.1 µM [%] | inhibition at 0.01 µM [%]
1 | 88.3 | 53 | – | – | CC1=C(CCN(C)C)c2cc(NS(=O)(=O)c3csc4ccccc34)ccc2C1 [Example 44, N-{3-[2-(Dimethylamino)ethyl]-2-methyl-1H-inden-5-yl}-1-benzothiophene-3-sulfonamide] | – | –
2 | – | – | 97 | 4.8 | CC1=C(CCN(C)C)c2cc(NS(=O)(=O)c3c(Cl)nc4sccn34)ccc2C1 [Example 19, N-[3-(2-Dimethylaminoethyl)-2-methyl-1H-inden-5-yl]-6-chloroimidazo[2,1-b]thiazole-5-sulfonamide] | – | –
3 | – | – | 72 | 157 | CC1=C(CCN2CCCC2)c2cccc(NS(=O)(=O)c3ccc4ccccc4c3)c2C1 [Example 36, N-[2-Methyl-1-(2-pyrrolidin-1-ylethyl)-3H-inden-4-yl]naphthalene-2-sulfonamide] | – | –
4 | 78.4 | 32 | – | – | CC1=C(CCN(C)C)c2cc(NS(=O)(=O)c3cccc4ccccc34)ccc2C1 [Example 43, N-{3-[2-(Dimethylamino)ethyl]-2-methyl-1H-inden-5-yl}naphthalene-1-sulfonamide] | – | –
5 | 51 | 25 | – | – | CC1=C(CCN(C)C)c2cc(S(=O)(=O)Nc3cccc4ccccc34)ccc2C1 [Example 39, N-(Naphthalene-1-yl)-3-(2-dimethylaminoethyl)-2-methyl-1H-indene-5-sulfonamide] | – | –
6 | 63 | 26 | – | – | CC1=C(CCN2CCCC2)c2cc(NS(=O)(=O)c3ccc(N)cc3)ccc2C1 [Example 32, 4-Amino-N-[3-(2-pyrrolidin-1-ylethyl)-2-methyl-1H-inden-5-yl]benzene sulfonamide] | – | –
7 | 42 | 13 | – | – | CC1=C(CCN(C)C)c2cc(NS(=O)(=O)c3sc4ccc(Cl)cc4c3C)ccc2C1 [Example 20, N-[3-(2-Dimethylaminoethyl)-2-methyl-1H-inden-5-yl]-5-chloro-3-methylbenzo[b]thiophene-2-sulfonamide] | – | –
8 | 71 | 18 | 100 | 50.6 | CC1=C(CCN(C)C)c2cc(NS(=O)(=O)c3ccc4ccccc4c3)ccc2C1 [Example 34, N-[3-(2-Dimethylaminoethyl)-2-methyl-1H-inden-5-yl]naphthalene-2-sulfonamide] | – | –
9 | – | – | 92 | 62.9 | CC1=C(CCN2CCCC2)c2cc(NS(=O)(=O)c3ccc4ccccc4c3)ccc2C1 [Example 35, N-[2-Methyl-3-(2-pyrrolidin-1-ylethyl)-1H-inden-5-yl]naphthalene-2-sulfonamide] | – | –
10 | 16 | 8 | 45 | – | CC1=C(CCO)c2cc(NS(=O)(=O)c3ccc4ccccc4c3)ccc2C1 [Example 40, N-[3-(2-Hydroxyethyl)-2-methyl-1H-inden-5-yl]naphthalene-2-sulfonamide] | – | –
11 | – | – | – | 216 | CC1=C(CCN(C)C)c2cc(NS(=O)(=O)c3ccc4ccccc4c3)ccc2/C1=C\c1ccccc1 [Example 33, N-[1(Z)-Benzylidene-3-(2-dimethylaminoethyl)-2-methyl-1H-inden-5-yl]naphthalene-2-sulfonamide] | – | –

Second part, the compound before the results:

Row | SMILES | inhibition at 0.1 µM [1] [%] | inhibition at 0.01 µM [2] [%] | inhibition at 1 µM [3] [%] | Ki [nM] | inhibition at 0.1 µM [%] | inhibition at 0.01 µM [%]
12 | CC1=C(CCN2CCCC2)c2cc(NS(=O)(=O)c3c(Cl)nc4sccn34)ccc2C1 [Example 29, N-[3-(2-Pyrrolidin-1-ylethyl)-2-methyl-1H-inden-5-yl]-6-chloroimidazo[2,1-b]thiazole-5-sulfonamide] | 82 | 53 | – | – | – | –
13 | Cc1c(S(=O)(=O)Nc2ccc3c(c2)C(CCN(C)C)=CC3(C)C)sc2ccc(Cl)cc12 [Example 42, 5-Chloro-N-{3-[2-(dimethylamino)ethyl]-1,1-dimethyl-1H-inden-5-yl}-3-methylbenzo[b]thiophene-2-sulfonamide] | 2.3 | -7.5 | – | – | – | –
14 | CN(C)CCC1=CC(C)(C)c2ccc(NS(=O)(=O)c3c(Cl)nc4sccn34)cc21 [Example 41, 6-Chloro-N-{3-[2-(dimethylamino)ethyl]-1,1-dimethyl-1H-inden-5-yl}imidazo[2,1-b] [1,3]thiazole-5-sulfonamide] | 24.5 | 9.4 | – | – | – | –
15 | CC1=C(CCN(C)C)c2cc(Cl)ccc2C1 [Example 47, 2-(5-Chloro-2-methyl-1H-inden-3-yl)-N,N-dimethylethanamine] | – | – | – | – | 8.9 | 16.2
16 | CC1=C(C2CCCN(C)C2)c2cc(NS(=O)(=O)c3c(Cl)nc4sccn34)ccc2C1 (stereo not shown) [Example 46, 6-Chloro-N-[2-methyl-3-(1-methylpiperidin-3-yl)-1H-inden-5-yl]imidazo[2,1-b] [1,3]thiazole-5-sulfonamide] | 85.8 | 77.6 | – | – | – | –
17 | CC1=C(C2CCN(C)C2)c2cc(NS(=O)(=O)c3c(Cl)nc4sccn34)ccc2C1 (stereo not shown) [Example 45, 6-Chloro-N-[2-methyl-3-(1-methylpyrrolidin-3-yl)-1H-inden-5-yl]imidazo[2,1-b] [1,3]thiazole-5-sulfonamide] | 5.4 | 7.4 | – | – | – | –
18 | CC1=C(CCN2CCCC2)c2cc(NS(=O)(=O)c3sc4ccc(Cl)cc4c3C)ccc2C1 [Example 38, N-[2-Methyl-3-(2-pyrrolidin-1-ylethyl)-1H-inden-5-yl]-5-chloro-3-methylbenzo[b]thiophene-2-sulfonamide] | – | – | 100 | 20.2 | – | –
19 | O=S(=O)(Nc1ccc2c(c1)C(CCN1CCCC1)=CC2)c1ccc2ccccc2c1 [Example 37, N-[3-(2-Pyrrolidin-1-ylethyl)-1H-inden-5-yl]naphthalene-2-sulfonamide] | – | – | 92 | 46.3 | – | –
